Where a name gives a salt, the structure may show the parent alone.
Test: degradation kinetics of fluvastatin in aqueous solution at various pH
Assay type: physicochemical

% fluvastatin remaining at 37° C. after 1 hour (pH 1.0, 37° C.): 10.9% | % fluvastatin remaining at 37° C. after 24 hrs (pH 1.0, 37° C.): 0% | % fluvastatin remaining at 37° C. after 1 hour (pH 4.0, 37° C.): 86.7% | % fluvastatin remaining at 37° C. after 24 hrs (pH 4.0, 37° C.): 25.2% | % fluvastatin remaining at 37° C. after 1 hour (pH 6.0, 37° C.): 99.6% | % fluvastatin remaining at 37° C. after 24 hrs (pH 6.0, 37° C.): 97.1% | % fluvastatin remaining at 37° C. after 1 hour (pH 7.8, 37° C.): 98.3% | % fluvastatin remaining at 37° C. after 24 hrs (pH 7.8, 37° C.): 98.0%
Compound: CC(C)n1c(/C=C/C(O)CC(O)CC(=O)O)c(-c2ccc(F)cc2)c2ccccc21 (stereo not drawn) [fluvastatin, R*,S*-(E)-(±)-7-[3-(4-fluorophenyl)-1-(1-methyl-ethyl)-1H-indol-2-yl]-3,5-dihydroxy-6-heptenoic acid, sodium salt]

From patent US20050239884A1, “Compositions comprising hmg-coa reductase inhibitor” (priority 2002, published 2005)
